Source: ChEMBL document CHEMBL5042495, “Lead Optimization of Influenza Virus RNA Polymerase Inhibitors Targeting PA-PB1 Interaction” (J Med Chem, 2022)
The source made the active and inactive calls. The rule behind the calls is not given here.

What was measured:
Influenza A virus [1] = experiment: Antiviral activity against Influenza A virus A/WSN/33(H1N1) strain infected in MDCK cells assessed as reduction in viral infection incubated for 48 hrs by crystal violet staining based assay; assay type: functional, organism-based
[2] = Cytotoxicity in dog MDCK cells assessed as reduction in cell viability incubated for 48 hrs by crystal violet staining based assay; assay type: toxicity, Canis lupus familiaris
HEK293T [3] = experiment: (§1) Inhibition of Influenza A virus RNA dependent RNA polymerase activity in HEK293T cells co-transfected with pPoll/NP(0)GFP(0) at 10 to 40 uM after 2 hrs post-transfection followed by compound addition incubated for 22 hrs by fluorescence microscopic analysis; assay type: cell-based; settings: dose 10-40 µM
HEK293T [4] = experiment: (§2) Inhibition of Influenza A virus RNA dependent RNA polymerase activity in HEK293T cells co-transfected with pPoll/NP(0)GFP(0) after 2 hrs post-transfection followed by compound addition incubated for 22 hrs by fluorescence microscopic analysis; assay type: cell-based
HEK293T [5] = experiment: as §1, with “pPoll/NP(0)GFP(0) assessed as reduction on number of GFP positive cells” for “pPoll/NP(0)GFP(0)”, “10” for “10 to 40”; assay type: cell-based
Influenza A virus [6] = experiment: Antiviral activity against Influenza A virus A/Puerto Rico/8/34(H1N1) strain infected in MDCK cells assessed as reduction in viral infection incubated for 48 hrs by crystal violet staining based assay; assay type: functional, organism-based
Influenza A virus [7] = experiment: Antiviral activity against Influenza A virus A/Virginia/ATCC2/2009(H1N1) strain infected in MDCK cells assessed as reduction in viral infection incubated for 48 hrs by crystal violet staining based assay; assay type: functional, organism-based
Influenza A virus [8] = experiment: Antiviral activity against Influenza A virus A/California/7/2009(H1N1) strain infected in MDCK cells assessed as reduction in viral infection incubated for 48 hrs by crystal violet staining based assay; assay type: functional, organism-based
Influenza A virus [9] = experiment: Antiviral activity against Influenza A virus A/Aichi/8/68(H3N2) strain infected in MDCK cells assessed as reduction in viral infection incubated for 48 hrs by crystal violet staining based assay; assay type: functional, organism-based
Influenza A virus [10] = experiment: Antiviral activity against Influenza A virus B/Lee/40(type B) strain infected in MDCK cells assessed as reduction in viral infection incubated for 48 hrs by crystal violet staining based assay; assay type: functional, organism-based
HEK293T [11] = experiment: as §2, with “pPoll/NP(0)GFP(0) assessed as reduction on number of GFP positive cells at 10 nM” for “pPoll/NP(0)GFP(0)”; assay type: cell-based

Row | SMILES | EC50 (Influenza A virus [1]) [nM] | CC50 at 48 h [2] [nM] | other results
1 | CCC(C)(C)n1nnnc1C(c1cc2cccc(C)c2[nH]c1=O)N(Cc1ccccc1)Cc1ccc(F)cc1 (stereo not drawn) | 570 | > 83000 | inhibition (HEK293T [3]): Dose-Dependent Effect
2 | CCc1ccc2[nH]c(=O)c(CN(Cc3ccc(C(C)(C)C)cc3)[C@@H](C)c3ccc(OC)cc3)cc2c1 | 103 | > 5000 | inhibition (HEK293T [4]): Active; inhibition (HEK293T [3]): Dose-Dependent Effect; inhibition (HEK293T [5]): Active
3 | C[C@@H](c1ccc(OC(F)(F)F)cc1)N(Cc1ccc(C(C)(C)C)cc1)Cc1cc2cc(C3CC3)ccc2[nH]c1=O | 77 | > 10000 | EC50 (Influenza A virus [6]): 67 nM; EC50 (Influenza A virus [7]): 64 nM; EC50 (Influenza A virus [8]): 270 nM; EC50 (Influenza A virus [9]): 72 nM; EC50 (Influenza A virus [10]): 230 nM; inhibition (HEK293T [4]): Active; inhibition (HEK293T [5]): Active
4 | COc1ccc2[nH]c(=O)c(CN(Cc3ccc(C(C)(C)C)cc3)C(C)c3ccc(OC)c(Cl)c3)cc2c1 (stereo not drawn) | 61 | > 10000 | EC50 (Influenza A virus [6]): 72 nM; EC50 (Influenza A virus [7]): 77 nM; EC50 (Influenza A virus [8]): 230 nM; EC50 (Influenza A virus [9]): 85 nM; EC50 (Influenza A virus [10]): 79 nM; inhibition (HEK293T [4]): Active; inhibition (HEK293T [5]): Active
5 | NC(=O)c1nc(F)cnc1O [FAVIPIRAVIR] | 1900 |  | EC50 (Influenza A virus [8]): 2900 nM
6 | CCOC(=O)C1=C[C@@H](OC(CC)CC)[C@H](NC(C)=O)[C@@H](N)C1 [OSELTAMIVIR PHOSPHATE] | 2010 |  | EC50 (Influenza A virus [6]): 11600 nM; EC50 (Influenza A virus [7]): 18500 nM; EC50 (Influenza A virus [8]): 4620 nM; EC50 (Influenza A virus [9]): 2250 nM; inhibition (HEK293T [3]): inactive
7 | CC(c1ccc(N(C)C)c(Cl)c1)N(Cc1ccc(C(C)(C)C)cc1)Cc1cc2cc(Br)ccc2[nH]c1=O (stereo not drawn) | 100 | 6100 | 
8 | CC(C)c1ccc2[nH]c(=O)c(CN(Cc3ccc(C(C)(C)C)cc3)C(C)c3ccc(N(C)C)c(Cl)c3)cc2c1 (stereo not drawn) | 680 | > 10000 | 
9 | Cc1ccc2cc(CN(Cc3ccc(F)cc3)Cc3ccc(C(F)(F)F)cc3)c(=O)[nH]c2c1 | 2100 | > 33000 | 
10 | O=C1c2c(O)c(=O)ccn2N([C@@H]2c3ccccc3SCc3c2ccc(F)c3F)[C@@H]2COCCN12 [BALOXAVIR] | 3 |  | EC50 (Influenza A virus [6]): 7 nM; EC50 (Influenza A virus [7]): 6 nM; EC50 (Influenza A virus [8]): 4 nM; EC50 (Influenza A virus [9]): 4 nM; EC50 (Influenza A virus [10]): 170 nM; inhibition (HEK293T [11]): Active
11 | CCc1ccc2[nH]c(=O)c(CN(Cc3ccc(O)cc3)Cc3ccc(C(C)(C)C)cc3)cc2c1 | 1800 | > 10000 | 
12 | Cc1ccc2cc(CN(Cc3ccc(C(C)C)cc3)Cc3cccc(F)c3)c(=O)[nH]c2c1 | 2100 | > 33000 | 
13 | CCc1ccc2[nH]c(=O)c(CN(Cc3ccc(C(C)(C)C)cc3)C(C)c3ccc(OC)cc3)cc2c1 (stereo not drawn) | 220 | > 5000 | 
14 | CCc1ccc2[nH]c(=O)c(CN(Cc3ccc(C(C)(C)C)cc3)C(C)c3ccc(OC)c(Cl)c3)cc2c1 (stereo not drawn) | 170 | > 10000 | 
15 | Cc1ccc2cc(CN(Cc3ccc(F)cc3)Cc3ccc(C(C)(C)C)cc3)c(=O)[nH]c2c1 | 1600 | > 33000 | 
16 | COc1ccc2[nH]c(=O)c(CN(Cc3ccc(N(C)C)cc3)Cc3ccc(C(C)(C)C)cc3)cc2c1 | 460 | 8500 | 
17 | CC(c1ccc(OC(F)(F)F)c(Cl)c1)N(Cc1ccc(C(C)(C)C)cc1)Cc1cc2cc(Br)ccc2[nH]c1=O (stereo not drawn) | 280 | > 10000 | 

Row | SMILES | EC50 (Influenza A virus [1]) [nM] | CC50 at 48 h [2] [nM] | other results
18 | CCc1ccc2[nH]c(=O)c(CN(Cc3cccc(F)c3)Cc3ccc4ccccc4c3)cc2c1 | 4100 | > 5000 | 
19 | Cc1cccc2cc(C(C#N)N(Cc3ccccc3)Cc3ccc(F)cc3)c(=O)[nH]c12 (stereo not drawn) | 38000 | > 83000 | 
20 | CCc1ccc2[nH]c(=O)c(CN(Cc3ccc(F)cc3)Cc3ccc(C(C)(C)C)cc3)cc2c1 | 640 | > 33000 | 
21 | COc1ccc([C@H](C)N(Cc2ccc(C(C)(C)C)cc2)Cc2cc3cc(C(C)C)ccc3[nH]c2=O)cc1 | 480 | > 10000 | 
22 | Cc1ccc2cc(C(C#N)N(Cc3ccccc3)Cc3ccc(C(C)C)cc3)c(=O)[nH]c2c1 (stereo not drawn) | 5600 | > 83000 | 
23 | Cc1cccc2cc(C(C#N)N(Cc3ccccc3)Cc3ccc(C(C)C)cc3)c(=O)[nH]c12 (stereo not drawn) | 16000 | > 83000 | 
24 | C[C@@H](c1ccc(OC(F)(F)F)cc1)N(Cc1ccc(C(C)(C)C)cc1)Cc1cc2cc(C(F)(F)F)ccc2[nH]c1=O | 260 | > 10000 | 
25 | Cc1ccc2[nH]c(=O)c(CN(Cc3ccccc3)Cc3ccc(C(C)(C)C)cc3)cc2c1 | 920 | > 5000 | 
26 | Cc1ccc2[nH]c(=O)c(CN(Cc3ccc(F)cc3)Cc3ccc(C(C)(C)C)cc3)cc2c1 | 390 | > 27000 | 
27 | Cc1ccc2[nH]c(=O)c(CN(Cc3ccc(C#N)cc3)Cc3ccc(C(C)(C)C)cc3)cc2c1 | 500 | > 5000 | 
28 | Cc1ccc2[nH]c(=O)c(CN(Cc3ccc(N(C)C)cc3)Cc3ccc(C(C)(C)C)cc3)cc2c1 | 460 | > 5000 | 
29 | COc1ccc(C(C)N(Cc2ccc(C(C)(C)C)cc2)Cc2cc3cc(C)ccc3[nH]c2=O)cc1 (stereo not drawn) | 260 | > 5000 | 
30 | Cc1ccc2[nH]c(=O)c(CN(Cc3ccc(C(C)(C)C)cc3)Cc3ccc(N(C)C)c(Cl)c3)cc2c1 | 220 | > 10000 | 
31 | CN(C)c1ccc(CN(Cc2ccc(C(C)(C)C)cc2)Cc2cc3cc(Br)ccc3[nH]c2=O)cc1 | 530 | > 10000 | 
32 | CC(c1ccc(OC(F)(F)F)c(Cl)c1)N(Cc1ccc(C(C)(C)C)cc1)Cc1cc2cc(C3CC3)ccc2[nH]c1=O (stereo not drawn) | 1200 | > 10000 | 
33 | Cc1ccc2[nH]c(=O)c(C(C#N)N(Cc3ccccc3)Cc3ccc(C(C)C)cc3)cc2c1 (stereo not drawn) | 15000 | > 83000 | 
